Laboratory results: paper PMC5218480 (PLoS ONE, 2017)

Test system: MV-4-11 cells
Experiment: Gene expression microarray analysis (Affymetrix PrimeView) and GSEA
Format: cell-based, human
Design: RFU PODN (11730768_x_at) / Fold change /veh PODN (11730768_x_at) / RFU LINC00158 (11744669_a_at) / Fold change /veh LINC00158 (11744669_a_at) / RFU DUSP10 (11751237_a_at) / Fold change /veh DUSP10 (11751237_a_at) / RFU ID3 (11757404_x_at) / Fold change /veh ID3 (11757404_x_at) / RFU PLEKHG5 (11737974_s_at) / Fold change /veh PLEKHG5 (11737974_s_at) / RFU LRRC4B (11730491_at) / Fold change /veh LRRC4B (11730491_at) / RFU GIMAP4 (11747438_a_at) / Fold change /veh GIMAP4 (11747438_a_at) / RFU KRT8 (11758183_x_at) / Fold change /veh KRT8 (11758183_x_at) / RFU CNN1 (11734310_a_at) / Fold change /veh CNN1 (11734310_a_at) / RFU VPS37D (11726825_at) / Fold change /veh VPS37D (11726825_at) / RFU C10orf10 (11716522_x_at) / Fold change /veh C10orf10 (11716522_x_at) / RFU KIR2DL2 /// KIR2DL4 /// KIR2DL5A /// KIR2DL5B /// KIR2DS1 /// KIR2DS2 /// KIR2DS3 /// KIR2DS4 /// KIR3DL3 /// KIR3DL3 /// KIR3DS1 (11738374_at) / Fold change /veh KIR2DL2 /// KIR2DL4 /// KIR2DL5A /// KIR2DL5B /// KIR2DS1 /// KIR2DS2 /// KIR2DS3 /// KIR2DS4 /// KIR3DL3 /// KIR3DL3 /// KIR3DS1 (11738374_at) / RFU C1QL1 (11718748_at) / Fold change /veh C1QL1 (11718748_at) / RFU TMPRSS4 (11747572_a_at) / Fold change /veh TMPRSS4 (11747572_a_at) / RFU HAMP (11756126_x_at) / Fold change /veh HAMP (11756126_x_at) / RFU RNFT2 (11725882_a_at) / Fold change /veh RNFT2 (11725882_a_at) / RFU NR4A2 (11747474_a_at) / Fold change /veh NR4A2 (11747474_a_at) / RFU ABCC12 (11746883_a_at) / Fold change /veh ABCC12 (11746883_a_at) / RFU TMEM136 (11760407_x_at) / Fold change /veh TMEM136 (11760407_x_at) / RFU CLDN22 /// WWC2 (11732394_at) / Fold change /veh CLDN22 /// WWC2 (11732394_at) / RFU HLA-DPB1 (11760878_x_at) / Fold change /veh HLA-DPB1 (11760878_x_at) / RFU SPINT1 (11716480_a_at) / Fold change /veh SPINT1 (11716480_a_at) / RFU GAP43 (11754022_s_at) / Fold change /veh GAP43 (11754022_s_at) / RFU A4GNT (11735810_at) / Fold change /veh A4GNT (11735810_at) / RFU PRB3 (11715151_x_at) / Fold change /veh PRB3 (11715151_x_at) / RFU TUBB4B (11761932_at) / Fold change /veh TUBB4B (11761932_at) / RFU CAPN14 (11732068_a_at) / Fold change /veh CAPN14 (11732068_a_at) / RFU TMCC2 (11721928_a_at) / Fold change /veh TMCC2 (11721928_a_at) / RFU IRGQ (11745062_a_at) / Fold change /veh IRGQ (11745062_a_at) / RFU FAM174B (11720279_a_at) / Fold change /veh FAM174B (11720279_a_at) / RFU TMPRSS4 (11748680_a_at) / Fold change /veh TMPRSS4 (11748680_a_at) / RFU FAM212B (11763350_a_at) / Fold change /veh FAM212B (11763350_a_at) / RFU PLEKHG5 (11743358_a_at) / Fold change /veh PLEKHG5 (11743358_a_at) / RFU ZSCAN30 (11745921_a_at) / Fold change /veh ZSCAN30 (11745921_a_at) / RFU CMKLR1 (11741424_a_at) / Fold change /veh CMKLR1 (11741424_a_at) / RFU LOC101060620 /// MAPK8IP1 (11723275_at) / Fold change /veh LOC101060620 /// MAPK8IP1 (11723275_at) / RFU SPTSSB (11747773_x_at) / Fold change /veh SPTSSB (11747773_x_at) / RFU PRSS12 (11739890_at) / Fold change /veh PRSS12 (11739890_at) / RFU BIN1 (11741810_x_at) / Fold change /veh BIN1 (11741810_x_at) / RFU WNT11 (11732464_a_at) / Fold change /veh WNT11 (11732464_a_at) / RFU C10orf10 (11716521_a_at) / Fold change /veh C10orf10 (11716521_a_at) / RFU C5orf56 (11738089_at) / Fold change /veh C5orf56 (11738089_at) / RFU CYB561 (11721691_x_at) / Fold change /veh CYB561 (11721691_x_at) / RFU ANKRD19P (11752326_a_at) / Fold change /veh ANKRD19P (11752326_a_at) / RFU OR2T12 /// OR2T33 /// OR2T8 (11738714_s_at) / Fold change /veh OR2T12 /// OR2T33 /// OR2T8 (11738714_s_at) / RFU VCAN (11748164_a_at) / Fold change /veh VCAN (11748164_a_at) / RFU JSRP1 (11732532_at) / Fold change /veh JSRP1 (11732532_at) / RFU KRTAP10-11 (11738290_x_at) / Fold change /veh KRTAP10-11 (11738290_x_at) / RFU MYO3A (11730013_a_at) / Fold change /veh MYO3A (11730013_a_at) / RFU EBF3 (11725865_a_at) / Fold change /veh EBF3 (11725865_a_at) / RFU CAMK2N1 (11719241_x_at) / Fold change /veh CAMK2N1 (11719241_x_at) / RFU C5orf56 (11738088_a_at) / Fold change /veh C5orf56 (11738088_a_at) / RFU OLFML3 (11715873_a_at) / Fold change /veh OLFML3 (11715873_a_at) / RFU LOC100653217 /// NTM (11731650_a_at) / Fold change /veh LOC100653217 /// NTM (11731650_a_at) / RFU MAPK11 (11762145_a_at) / Fold change /veh MAPK11 (11762145_a_at) / RFU FIZ1 (11724087_x_at) / Fold change /veh FIZ1 (11724087_x_at) / RFU OASL (11726364_x_at) / Fold change /veh OASL (11726364_x_at) / RFU SOX15 (11748057_x_at) / Fold change /veh SOX15 (11748057_x_at) / RFU CD79A (11719716_a_at) / Fold change /veh CD79A (11719716_a_at) / RFU HIST1H1D (11736915_at) / Fold change /veh HIST1H1D (11736915_at) / RFU CASKIN2 (11723855_a_at) / Fold change /veh CASKIN2 (11723855_a_at) / RFU LOC730098 (11760151_x_at) / Fold change /veh LOC730098 (11760151_x_at) / RFU OR4N2 (11742367_at) / Fold change /veh OR4N2 (11742367_at) / RFU PRRT2 (11749266_a_at) / Fold change /veh PRRT2 (11749266_a_at) / RFU SNX32 (11753110_a_at) / Fold change /veh SNX32 (11753110_a_at) / RFU CDHR5 (11726645_a_at) / Fold change /veh CDHR5 (11726645_a_at) / RFU RCAN1 (11760418_a_at) / Fold change /veh RCAN1 (11760418_a_at) / RFU FAM167A (11723789_a_at) / Fold change /veh FAM167A (11723789_a_at) / RFU FAM26E (11764081_at) / Fold change /veh FAM26E (11764081_at) / RFU ISYNA1 (11749810_s_at) / Fold change /veh ISYNA1 (11749810_s_at) / RFU ACY1 (11761880_at) / Fold change /veh ACY1 (11761880_at) / RFU 11764098_at / Fold change /veh 11764098_at / RFU SAMD14 (11745864_x_at) / Fold change /veh SAMD14 (11745864_x_at) / RFU NPB (11741838_a_at) / Fold change /veh NPB (11741838_a_at) / RFU TMPRSS6 (11731388_a_at) / Fold change /veh TMPRSS6 (11731388_a_at) / RFU KRTAP10-2 (11738614_at) / Fold change /veh KRTAP10-2 (11738614_at) / RFU ARHGAP8 /// PRR5-ARHGAP8 (11727945_x_at) / Fold change /veh ARHGAP8 /// PRR5-ARHGAP8 (11727945_x_at) / RFU KRTAP5-7 /// NADSYN1 (11734609_at) / Fold change /veh KRTAP5-7 /// NADSYN1 (11734609_at) / RFU RASL12 (11751679_a_at) / Fold change /veh RASL12 (11751679_a_at) / RFU CDKN2B (11736163_a_at) / Fold change /veh CDKN2B (11736163_a_at) / RFU PRF1 (11729649_at) / Fold change /veh PRF1 (11729649_at) / RFU, ZNF638 /// ZNF638-IT1 / Fold change vs veh, ZNF638 /// ZNF638-IT1 / RFU, PANK3 / Fold change vs veh, PANK3 / RFU, SH3YL1 / Fold change vs veh, SH3YL1 / RFU, ZEB2 / Fold change vs veh, ZEB2 / RFU, NRIP1 / Fold change vs veh, NRIP1 / RFU, PTTG1IP / Fold change vs veh, PTTG1IP / RFU, CAPN2 / Fold change vs veh, CAPN2 / RFU, MED14 / Fold change vs veh, MED14 / RFU, SNORA58 / Fold change vs veh, SNORA58 / RFU, C1orf63 / Fold change vs veh, C1orf63 / RFU, LRRFIP1 / Fold change vs veh, LRRFIP1 / RFU, NDUFAF7 / Fold change vs veh, NDUFAF7 / RFU, SLC12A2 / Fold change vs veh, SLC12A2 / RFU, IBTK / Fold change vs veh, IBTK / RFU, ESF1 / Fold change vs veh, ESF1 / Fold change vs veh, TMEM50B / RFU, TAOK1 / Fold change vs veh, TAOK1 / RFU, ACBD3 / Fold change vs veh, ACBD3 / RFU, TMA16 / Fold change vs veh, TMA16 / RFU, RWDD3 / Fold change vs veh, RWDD3 / RFU, BCAT1 / Fold change vs veh, BCAT1 / RFU, EDEM3 / Fold change vs veh, EDEM3 / RFU, TMEM33 / Fold change vs veh, TMEM33 / RFU, WDR75 / Fold change vs veh, WDR75 / RFU, AHCTF1 / Fold change vs veh, AHCTF1 / RFU, TFRC / Fold change vs veh, TFRC / RFU, ZDHHC17 / Fold change vs veh, ZDHHC17 / RFU, NOM1 / Fold change vs veh, NOM1 / RFU, ARL8B / Fold change vs veh, ARL8B / RFU, ZBTB11 / Fold change vs veh, ZBTB11 / RFU, TAMM41 / Fold change vs veh, TAMM41 / RFU, KIAA1704 /// LOC100996395 / Fold change vs veh, KIAA1704 /// LOC100996395 / RFU, ING1 / Fold change vs veh, ING1 / RFU, TRMT61B / Fold change vs veh, TRMT61B / RFU, FUBP3 / Fold change vs veh, FUBP3 / RFU, TP53 / Fold change vs veh, TP53 / RFU, TNKS2 / Fold change vs veh, TNKS2 / RFU, ZFP14 / Fold change vs veh, ZFP14 / RFU, ACTR2 / Fold change vs veh, ACTR2 / RFU, PPP3R1 / Fold change vs veh, PPP3R1 / RFU, PIK3R1 / Fold change vs veh, PIK3R1 / RFU, HNRNPA1 / Fold change vs veh, HNRNPA1 / RFU, RNF170 / Fold change vs veh, RNF170 / RFU, ZNF28 / Fold change vs veh, ZNF28 / RFU, RNGTT / Fold change vs veh, RNGTT / RFU, OGT / Fold change vs veh, OGT / RFU, BRD1 / Fold change vs veh, BRD1 / RFU, MARS / Fold change vs veh, MARS / RFU, ZNF655 / Fold change vs veh, ZNF655 / RFU, FAHD1 / Fold change vs veh, FAHD1 / RFU, BDP1 / Fold change vs veh, BDP1 / RFU, LRRCC1 / Fold change vs veh, LRRCC1 / RFU, ARID1A / Fold change vs veh, ARID1A / RFU, ZNF146 / Fold change vs veh, ZNF146 / RFU, ZNF330 / Fold change vs veh, ZNF330 / RFU, GPN3 / Fold change vs veh, GPN3 / RFU, C9orf123 / Fold change vs veh, C9orf123 / RFU, N4BP2L2 / Fold change vs veh, N4BP2L2 / RFU, ARFIP1 / Fold change vs veh, ARFIP1 / RFU, FAM179B / Fold change vs veh, FAM179B / RFU, BCL10 / Fold change vs veh, BCL10 / RFU, UHRF1BP1L / Fold change vs veh, UHRF1BP1L / RFU, BET1 / Fold change vs veh, BET1 / RFU, CNOT2 / Fold change vs veh, CNOT2 / RFU, ZNF268 / Fold change vs veh, ZNF268 / Fold change vs veh, ZNF507 / RFU, DGCR2 / Fold change vs veh, DGCR2 / RFU, WDSUB1 / Fold change vs veh, WDSUB1 / Fold change vs veh, HSP90B1 /// MIR3652 / RFU, ADSS / Fold change vs veh, ADSS / RFU, GK / Fold change vs veh, GK / RFU, ZNF148 / Fold change vs veh, ZNF148 / RFU, TAF9 / Fold change vs veh, TAF9 / RFU, SLC1A5 / Fold change vs veh, SLC1A5 / RFU, SLMO2 / Fold change vs veh, SLMO2 / RFU, ABCC4 / Fold change vs veh, ABCC4 / RFU, LOC101060439 /// RAP1B / Fold change vs veh, LOC101060439 /// RAP1B / RFU, RFX7 / Fold change vs veh, RFX7 / RFU, GTPBP10 / Fold change vs veh, GTPBP10 / RFU, CNEP1R1 / Fold change vs veh, CNEP1R1 / RFU, BIVM-ERCC5 /// ERCC5 / Fold change vs veh, BIVM-ERCC5 /// ERCC5 / RFU, ILF3 / Fold change vs veh, ILF3 / RFU 11762660_at / Fold change /veh 11762660_at / RFU VCAN (11757783_s_at) / Fold change /veh VCAN (11757783_s_at) / RFU DDX43 (11728927_at) / Fold change /veh DDX43 (11728927_at) / RFU KRT8 (11758188_x_at) / Fold change /veh KRT8 (11758188_x_at) / RFU NKD1 (11759106_at) / Fold change /veh NKD1 (11759106_at) / RFU SRD5A1 (11742802_a_at) / Fold change /veh SRD5A1 (11742802_a_at) / RFU TPSAB1 /// TPSB2 (11721975_s_at) / Fold change /veh TPSAB1 /// TPSB2 (11721975_s_at) / RFU GSTM3 (11746129_a_at) / Fold change /veh GSTM3 (11746129_a_at) / RFU IL23R (11737362_x_at) / Fold change /veh IL23R (11737362_x_at) / RFU TMEM51 (11727254_a_at) / Fold change /veh TMEM51 (11727254_a_at) / RFU PIWIL2 (11732686_x_at) / Fold change /veh PIWIL2 (11732686_x_at) / RFU ORM1 (11744905_x_at) / Fold change /veh ORM1 (11744905_x_at) / RFU CCDC152 (11743942_at) / Fold change /veh CCDC152 (11743942_at) / RFU ECM1 (11717891_a_at) / Fold change /veh ECM1 (11717891_a_at) / RFU IL23R (11748794_a_at) / Fold change /veh IL23R (11748794_a_at) / RFU TNFAIP8L3 (11732012_x_at) / Fold change /veh TNFAIP8L3 (11732012_x_at) / RFU MBOAT4 (11741988_at) / Fold change /veh MBOAT4 (11741988_at) / RFU 11764193_at / Fold change /veh 11764193_at / RFU TMEM53 (11763286_at) / Fold change /veh TMEM53 (11763286_at) / RFU MAGEB2 (11727129_at) / Fold change /veh MAGEB2 (11727129_at) / RFU TMEM200A (11744735_a_at) / Fold change /veh TMEM200A (11744735_a_at) / RFU CCDC152 (11751479_a_at) / Fold change /veh CCDC152 (11751479_a_at) / RFU FAM211A (11726209_a_at) / Fold change /veh FAM211A (11726209_a_at) / RFU RGS16 (11746705_a_at) / Fold change /veh RGS16 (11746705_a_at) / RFU VCAN (11755009_s_at) / Fold change /veh VCAN (11755009_s_at) / RFU RHOB (11743442_s_at) / Fold change /veh RHOB (11743442_s_at) / RFU RGS16 (11720943_a_at) / Fold change /veh RGS16 (11720943_a_at) / RFU RGS16 (11720944_at) / Fold change /veh RGS16 (11720944_at) / RFU, VPS4B / Fold change vs veh, VPS4B / RFU, CREB1 / Fold change vs veh, CREB1 / RFU, DNAJC13 / Fold change vs veh, DNAJC13 / RFU, GNAQ / Fold change vs veh, GNAQ / RFU, CDK5R1 / Fold change vs veh, CDK5R1 / RFU, ZRANB3 / Fold change vs veh, ZRANB3 / RFU, CUL4A / Fold change vs veh, CUL4A / RFU, CCNY / Fold change vs veh, CCNY / RFU, UFL1 / Fold change vs veh, UFL1 / RFU, COG3 / Fold change vs veh, COG3 / RFU, DIAPH2 / Fold change vs veh, DIAPH2 / RFU, SKA2 / Fold change vs veh, SKA2 / RFU, AFF3 / Fold change vs veh, AFF3 / RFU, LMF1 / Fold change vs veh, LMF1 / RFU, IPO11 / Fold change vs veh, IPO11 / RFU, DFFB / Fold change vs veh, DFFB / RFU, FOXP1 / Fold change vs veh, FOXP1 / RFU, CARD8 / Fold change vs veh, CARD8 / RFU, STRN3 / Fold change vs veh, STRN3 / RFU, ADK / Fold change vs veh, ADK / RFU, RASSF2 / Fold change vs veh, RASSF2 / RFU, WIPF1 / Fold change vs veh, WIPF1 / RFU, LARP1B / Fold change vs veh, LARP1B / RFU, RASA1 / Fold change vs veh, RASA1 / RFU, RB1 / Fold change vs veh, RB1 / RFU, PPFIA1 / Fold change vs veh, PPFIA1 / RFU, MAT2A / Fold change vs veh, MAT2A / RFU, CCT5 / Fold change vs veh, CCT5 / RFU, WDR92 / Fold change vs veh, WDR92 / RFU, CUX1 / Fold change vs veh, CUX1 / RFU, TTC7A / Fold change vs veh, TTC7A / RFU, TMEM135 / Fold change vs veh, TMEM135 / RFU, DEPTOR / Fold change vs veh, DEPTOR / RFU, CPM / Fold change vs veh, CPM / RFU, DNAJB6 / Fold change vs veh, DNAJB6 / RFU, CACNA2D3 / Fold change vs veh, CACNA2D3 / RFU, DTX4 / Fold change vs veh, DTX4 / RFU, TFCP2 / Fold change vs veh, TFCP2 / RFU, GMCL1 /// GMCL1P1 / Fold change vs veh, GMCL1 /// GMCL1P1 / RFU, AEBP2 / Fold change vs veh, AEBP2 / RFU, SNHG1 /// SNORD22 /// SNORD25 /// SNORD26 /// SNORD27 /// SNORD28 /// SNORD29 /// SNORD31 / Fold change vs veh, SNHG1 /// SNORD22 /// SNORD25 /// SNORD26 /// SNORD27 /// SNORD28 /// SNORD29 /// SNORD31 / Fold change (Aza/veh), C12orf56 (ProbeSet 11735607_a_at) / Fold change (ACY-1035/veh), C12orf56 (ProbeSet 11735607_a_at) / Fold change (Aza/veh), FGFR1OP (ProbeSet 11751329_s_at) / Fold change (ACY-1035/veh), FGFR1OP (ProbeSet 11751329_s_at) / Fold change (Aza/veh), VPS36 (ProbeSet 11739960_a_at) / Fold change (ACY-1035/veh), VPS36 (ProbeSet 11739960_a_at) / RFU SYPL1 (11715823_x_at) / Fold change /veh SYPL1 (11715823_x_at) / RFU IGFBP7 (11715501_s_at) / Fold change /veh IGFBP7 (11715501_s_at) / RFU REEP3 (11722064_at) / Fold change /veh REEP3 (11722064_at) / RFU IGLL1 (11728026_x_at) / Fold change /veh IGLL1 (11728026_x_at): dose or concentration left out as unconfirmed
Conditions: ProbeSet 11718701_a_at; LIST B

`Nc1ccc(-c2cccs2)cc1NC(=O)c1ccc2c(c1)cc(C1CC1)n2CCN1CCOCC1` [ACY-1035] was tested, and the “RFU, ARFIP1” value was 56.28 RFU.
